In US8614203B2, “Methods for the treatment of a central nervous system injury via a tapered administration protocol” (Emory University, priority 2005, dated 2013):

Key:
[1] = test system: traumatic brain injury; assay: Example 2: dose response, sticker removal task (sensory neglect) after TBI, cyclodextrin vehicle; format: in vivo
Description: […] Pairs of circular adhesive papers (2 cm dia) were attached to the distal-radial areas of each forepaw and the rats' latencies to remove the stimuli were recorded. Each rat was given four trials (2-min ITI) per testing period with a maximum trial length of 2 minutes.
Surgery to induce a traumatic brain injury was performed as outlined in Example 1. Behavior testing using the Morris Water Maize was performed as outlined in Example 1 and the methods for the tactical adhesive removal were performed.

[2] = test system: medial frontal cortex injury or sham surgery; assay: Example 3: behavioral testing (anxiety, locomotor, sensory neglect), acute vs tapered withdrawal; format: in vivo, Sprague-Dawley rats
Description: (§1) Male Sprague-Dawley rats received either medial frontal cortex injury or sham surgery. Injections were given 1 and 6 hours post-injury, and every 24 hours for 7 days. Treatment groups (n=8) encompassed injured (I) and sham (S) acute withdrawal (AW), tapered withdrawal (TW) and vehicle (V) treatments. TW injections were progressively halved over the final two treatments. Behavioral testing was conducted post-surgery, mid- and post-withdrawal. Activity boxes were used to investigate vertical movements and exploration: Sensory neglect and anxiety behaviors were also analyzed. Brain harvesting was performed at 8 days or 3 weeks post-injury. Perfused tissue sections were analyzed for lesion volume and immunohistochemical response. Fresh brain tissue was flash frozen in chilled 2-methyl butane, and then homogenized for Western blot analysis.

[3] = test system: HSP70; assay: Example 3: Western blot of brain tissue, HSP70; format: in vivo, Sprague-Dawley rats; conditions: TWI vs AWI vs VI, 3 weeks post-injury
Description: as §1

[4] = test system: GFAP; assay: Example 3: GFAP staining (reactive astrocytes); format: in vivo, Sprague-Dawley rats
Description: as §1

[5] = test system: p53, active Caspase 3, TNFα and NFκB; assay: Example 3: Western blot of apoptotic and inflammatory proteins; format: in vivo, Sprague-Dawley rats
Description: as §1

[6] = test system: BDNF; assay: Example 4: Western blotting densitometry, BDNF; format: in vivo, Sprague-Dawley rats
Source text: 60 male Sprague-Dawley rats weighing 290-310 g at the time of injury were used in this experiment. Food and water were provided ad libidum before and after surgery. Animals were handled and weighed daily from their arrival, seven days pre-surgery, to brain extraction three weeks post-surgery. Animals were handled in squads of 12, with n=10 per experimental condition. All animal procedures were approved by the Emory University Animal Care and Use Committee, Protocol #131-2002.
Isofluorane anesthesia was induced for four minutes and 45 seconds at 5% and maintained at 2.5%. Normal body temperature was maintained with a surgical heating pad placed beneath the sterile dressings. The scalp incision area was shaved and sterilized with iodine and isopropanol. A midline incision was made along the scalp and the fascia cleared to expose the surface of the skull. Medial, lateral, and dorsal stereotaxic coordinates were determined at bregma, and a 5-7 mm diameter bilateral craniotomy was performed mid-sagitally, 3 mm anterior to bregma. […] Sutures were used to close the incision after bleeding ceased. Animals were placed in individual heated, clean recovery cages until they awakened, and were returned to clean individual home cages with accessible moistened food pellets. Sham animals were anesthetized, and an incision was made at the top of the head. The fascia was cleared to expose bregma, then the incision was sutured closed. Sham surgeries were matched to lesion surgeries for all experimental conditions.
Sham (S) and lesion (L) animals were randomly assigned to one of three treatment groups: vehicle (VS, VL), acute withdrawal (AWS, AWL), and tapered withdrawal (TWS, TWL). […] Tapering was induced as halved dosages over the last two days of treatment. Dilutions for TW treatments were made with HBC stock. […]
Brains for protein analysis were sectioned into the immediate area of the lesion and snap frozen in 2-methyl-butane chilled on dry ice. […] The amount of brain homogenate needed to standardize samples to 2 μg/μL for Western blotting was calculated from the results of these assays. […]

[7] = test system: contusion injury; conditions: following a contusion injury (Roof et al. 1994); cited from earlier work
[8] = test system: BBB; conditions: in vitro (Betz et al. 1990); cited from earlier work

With `CC(=O)[C@H]1CC[C@H]2[C@@H]3CCC4=CC(=O)CC[C@]4(C)[C@H]3CC[C@]12C` [progesterone, pregn-4-ene-3,20-dione] as the molecule, how does the “sticker removal task (sensory neglect), initial” value ([1]; all doses (8, 16, 32 mg/kg), initially) read?
Its value is “initially produce behavioral recovery”.

What about the “sticker removal task (sensory neglect), later course” value ([1]; high dose (32 mg/kg)) of the same molecule?
Its value is “degraded to lesion control levels”.

What about the “sticker removal task (sensory neglect), later course” value ([1]; moderate dose (16 mg/kg), day 21 post-injury) of the same molecule?
Its value is “improved to sham levels by day 21 post-injury”.

And the “anxiety, locomotor and sensory deficits” value ([2]; injured (AWI) vs tapered withdrawal, injured (TWI))?
Its value is “increase anxiety, locomotor and sensory deficits compared to tapered progesterone withdrawal”.

And the “behavioral impairments one week after peak of withdrawal” value ([2]; injured (AWI), one week later)?
The value was “increased behavioral impairments are still evident in AWI animals”.

And the motor impairments ([2]; shams (AWS) vs other shams)?
Its motor impairments is “increased motor impairments compared to all other shams”.

What about the anxiety ([2]; shams (AWS) vs tapered progesterone rats) of the same molecule?
The anxiety was “increased anxiety compared to tapered progesterone rats”.

What about the HSP70 expression [3] of the same molecule?
The HSP70 expression was “increased for TWI over AWI over VI at 3 weeks post-injury”.

And the “reactive astrocytes (GFAP staining)” value ([4]; acute withdrawal, injured, rank between TWI and VI)?
The value was “followed by AWL”.

And the “reactive astrocytes (GFAP staining)” value ([4]; tapered withdrawal, injured (TWI))?
The value was “fewest reactive astrocytes”.

And the “expression of apoptotic and inflammatory proteins, outcome vs vehicle” value ([5]; all progesterone treatments (acute and tapered) vs vehicle-only controls)?
The value was “all progesterone treatments led to better outcomes compared to vehicle-only controls”.

And the “apoptosis and inflammation (p53, active Caspase 3, TNFα, NFκB)” value ([5]; tapered withdrawal (TW))?
Its value is “decreased with TW”.

And the BDNF levels ([6]; acute withdrawal, lesion (AWL) vs VL, three weeks post-injury)?
The BDNF levels was “AWL over VL”.

And the BDNF levels ([6]; sham animals (AWS, TWS, VS))?
The BDNF levels was “Sham animals did not display any differences between treatment groups”.

And the BDNF levels ([6]; tapered withdrawal, lesion (TWL) vs AWL, three weeks post-injury)?
The BDNF levels was “increase in BDNF levels for TWL over AWL”.

And the “post injury cerebral edema” value [7]?
Its value is “reduces the severity of post injury cerebral edema”.

What about the “permeability of the BBB” value [8] of the same molecule?
The value was “reduce the permeability of the BBB to macromolecules, but not ions”.
